Laboratory results: EP4772500A1, “NOVEL ISOXAZOLE COMPOUND AS TM4SF5-SPECIFIC INHIBITOR AND USE THEREOF” (Seoul National University R&DB Foundation, priority 2023, dated 2025)

System: SNU449-EV cells
Assay: Cell migration tracking, control cells
Assay type: cell-based, human
Conditions: SNU449-EV, 2.5, 5.0, or 10.0 µM, 17 hours (FIG. 7)
Protocol: SNU449-TM4SF5 cells, which were made to express TM4SF5 using a lentivirus in human hepatocellular carcinoma cells SNU449, and SNU449-EV cells, into which a control vector (empty vector, EV) was injected so that TM4SF5 is not expressed, were seeded to a density of 40% in 8-chamber plates (Thermo) coated with 10 µg/ml collagen type 1 (Advanced Biomatrix). Three hours after seeding in a cell culture environment containing 10% FBS (GenDEPOT), DMSO and drugs were treated in the culture medium at the indicated concentrations. After treating with the drugs, the positions of the same moving cells were repeatedly photographed using a microscope every 20 minutes for 17 hours. The cells were photographed using an IX81-ZDC microscope (Olympus) equipped with a UPLSAPO 10X2, NA0.4 Super Apochromatic objective lens (Olympus). While photographing the cells, a general cell culture environment was created by constantly injecting 5% CO2 at a rate of 40-60 mL/min at 37°C using a controller (Live Cell Instrument). The migration distance and path of the cells were calculated using the "Track Object" application of MetaMorph software (Molecular Devices LLC). […]

COc1ccc(-c2cc(-c3ccc(NC(C)=O)cc3)no2)cc1 [ST-2-001, N-(4-(5-(4-methoxyphenyl)isoxazole-3-yl)phenyl)acetamide]
cell migration: did not change
